The values below come from patent publication US20260374836A1, “PALMITOYLATED ANALOGUE OF PROLACTIN-RELEASING PEPTIDE FOR INTRANASAL ADMINISTRATION” (USTAV ORGANICKE CHEMIE A BIOCHEMIE AKADEMIE VED CR, V. V. I., priority 2022, published 2026).

Entries after “also recorded” stand apart in the source; their conditions may differ. Numbered stars: 1 amine (or outer) side, 2 acyl side, 3 side chain; on linkers, the order of the positions; unused ones are H or OH. Side chains are listed from the residue outwards. Ends that are not written are not given here. Peptide text beside a SMILES is read from it. * marks the point of attachment. γGlu = O=C(O)[C@H](CCC(=O)[*:2])N[*:1]; Palmitoyl = CCCCCCCCCCCCCCCC(=O)* Some results are limits rather than exact numbers.

One series deals with rats. The settings on record: intracerebroventricular (ICV); cited from earlier work.
The conditions of series [1]: background statement; cited from earlier work.
The test system of the next series is GPR10. The settings on record: previous studies (EP 3094643); cited from earlier work.
Series [2] relates to blood glucose. The experiment in a line: blood glucose after repeated administration to obese WKY rats on high-fat diet. The series is classed as in vivo, rat (Wistar Kyoto. As to conditions: obese WKY rats on HFD, IN 0.3 mg/kg repeated, same extent as IP 5 mg/kg. Here is the method:
(§1) Male WKY rats (Charles River, Germany) were kept in the accredited animal facility of the Institute of Physiology of the CAS, v.v.i., Prague, in the facility of the Academy of Sciences in Krč at a temperature of 22±2 °C and had free access to food and tap water. The light/dark rhythm was 12/12 hours (light onset 4:00). The animals were treated according to the Act on the Protection of Animals against Cruelty (Act No. 246/1992 Coll.). Males were fed a high-fat diet D12492 (Research Diets, USA) containing 60% fat, 20% protein and 20% carbohydrate. From 8 weeks of age, they were fed this diet for 4 months. They were then divided into groups of 5 animals (IP administration of saline or palm^11-PrRP31 in saline at 5 mg/kg) or 8 animals (IN administration of saline or palm^11-PrRP31 in saline at 0.3 mg/kg). The compound was administered IP or IN once daily 1 hour before lights out for 30 days. Throughout the period, the weight of the rats was monitored 3 times a week and at the end, glycated hemoglobin was measured in blood drawn from the tail. Glycated hemoglobin (HbAlc) was determined using the Tina-quant HbAlc Gen. 3 kit (Roche, Mannheim, Germany).

Series [3] relates to blood glucose. The experiment in a line: blood glucose after repeated administration to obese C57BL/6N mice on high-fat diet. As to conditions: obese C57BL/6N mice on HFD, IN 0.3 mg/kg repeated. The series is classed as in vivo, mouse (C57BL/6N). As to the method:
Male C57BL/6 mice (Charles River, Germany) were kept in the accredited animal facility of the Institute of Organic Chemistry and Biochemistry of the CAS, Prague, in the facility of the Academy of Sciences in Krč at a temperature of 22±2 °C and had free access to food and tap water. The light/dark rhythm was 12/12 hours (light onset 4:00). The animals were treated according to the Act on the Protection of Animals against Cruelty (Act No. 246/1992 Coll.). Males were fed at-house-made high-fat diet containing 60% fat (lard), 20% protein and 20% carbohydrate. From 8 weeks of age, they were fed this diet for 4 months. […] The compound was administered SC or IN twice daily 1 hour before lights out for 14 days. Throughout the period, the weight of the mice was monitored 3 times a week.

The test system of the next series is obese C57BL/6 mice. The experiment in a line: change in weight after chronic (14 days) SC or IN administration to obese C57BL/6 mice on high-fat diet. As to conditions: for body weight change: obese C57BL/6 mice on HFD. The series is classed as in vivo, mouse (C57BL/6). As to the method: Male C57BL/6 mice (Charles River, Germany) were kept in the accredited animal facility of the Institute of Organic Chemistry and Biochemistry of the CAS, Prague, in the facility of the Academy of Sciences in Krč at a temperature of 22±2 °C and had free access to food and tap water. The light/dark rhythm was 12/12 hours (light onset 4:00). The animals were treated according to the Act on the Protection of Animals against Cruelty (Act No. 246/1992 Coll.). Males were fed at-house-made high-fat diet containing 60% fat (lard), 20% protein and 20% carbohydrate. From 8 weeks of age, they were fed this diet for 4 months. They were then divided into groups of 6 animals (SC administration of saline or palm^11-PrRP31 in saline at 5 mg/kg and IN administration of saline or palm^11-PrRP31 in saline at 0.3 mg/kg). The compound was administered SC or IN twice daily 1 hour before lights out for 14 days. Throughout the period, the weight of the mice was monitored 3 times a week.
(§2) Graph-Pad Prism Software (San Diego, CA, USA), one-way ANOVA followed by Dunnett's post-hoc test was used for statistical evaluation. Differences in food intake between individuals injected with saline and those injected with palm^11-PrRP31 were considered statistically significant at P<0.05.

Series [4] deals with glycated hemoglobin (HbAlc). The experiment in a line: glycated hemoglobin (HbA1c) in obese WKY rats after 30 days of treatment. The series is classed as in vivo, rat (Wistar Kyoto. As to conditions: obese WKY rats on HFD. As to the method: as §1, §2
Series [5] has as its system mouse and rat models of high-fat diet-induced obesity. The settings on record: chronic peripheral administration; cited from earlier work.
The subject of another series is obese WKY rats. The experiment in a line: change in weight after chronic (30 days) IP or IN administration to obese WKY rats on high-fat diet. The series is classed as in vivo, rat (Wistar Kyoto. As to conditions: for weight change: obese WKY rats on HFD, 30 days. As to the method: as §1, §2
Another series has as its system fasted C57BL/6 mice. The experiment in a line: food intake test in fasted mice after SC or IN administration. The series is classed as in vivo, mouse (C57BL/6). As to conditions: for food intake: fasted mice. As to the method: Male mice of strain C57BL/6 (Charles River, Germany) were kept in the accredited animal facility of the Institute of Organic Chemistry and Biochemistry of the Academy of Sciences of the Czech Republic (CAS), Prague in the facility of the Academy of Sciences in Krč at a temperature of 22±2 °C and had free access to food and tap water. The rhythm of light/dark was 12/12 h (light onset 6:00). The animals were treated according to the Act on the Protection of Animals against Cruelty (Czech Act No. 246/1992 Coll.). Males were fed a standard Ssniff R/M-H diet (Ssniff Spezialdiäten GmbH, Soest, Germany). 16 h before the application of palm^11-PrRP31, the mice were fasted with free access to water. Application of saline and palm^11-PrRP31 after dissolution in saline was performed by SC at 5 mg/kg (volume 0.15 ml/mouse) or IN using a fine-tip pipette at 0.01 and 0.1 mg/kg (5 μl/mouse). Twenty minutes after peptide injection, mice were given pre-weighed food. The food was then weighed every 30 minutes for 7 hours. The experiment was performed at least twice for each dose of palm^11-PrRP31 and one group of mice consisted of at least 6 mice. The results are expressed as a percentage of food intake compared to the saline-injected control group.
Graph-Pad Prism Software (San Diego, CA, USA), one-way ANOVA followed by Dunnett's post-hoc test was used for statistical evaluation. Differences in food intake between individuals injected with saline (control) and those injected with palm^11-PrRP31 were considered statistically significant at P<0.05.

The mark [6] stands for this setting: IN 0.3 mg/kg once daily, listed as Palm^11-PrRP31.

“PrRP31: natural prolactin-releasing peptide form containing 31 amino acids (SRTHRHSMEIRTPDINPAWYASRGIRPVGRF; ends and bridges not checked; UniProt P81277 23-53, looked up)”: in the series on rats, the food intake result is given as “significant short-term reduction in food intake” and the weight result is recorded as “weight loss”.

With `CCCCCCCCCCC[C@@H](C[C@@H]1OC(=O)[C@H]1CCCCCC)OC(=O)[C@H](CC(C)C)NC=O` [Orlistat], the side effects entry in series [1] is recorded as “diarrhea”.

Regarding `CC(C)CC(N(C)C)C1(c2ccc(Cl)cc2)CCC1` (stereo not drawn) [Sibutramine], the side effects result in series [1] is reported as “increase the risk of heart disease”.

Turning to `CCCCCCCCCCCCCCCC(=O)N[C@@H](CCC(=O)NCCCC[C@H](NC(=O)[C@@H](NC(=O)[C@H](CCC(=O)O)NC(=O)[C@H](CCSC)NC(=O)[C@H](CO)NC(=O)[C@H](Cc1c[nH]cn1)NC(=O)[C@H](CCCNC(=N)N)NC(=O)[C@H](Cc1c[nH]cn1)NC(=O)[C@@H](NC(=O)[C@H](CCCNC(=N)N)NC(=O)[C@@H](N)CO)[C@@H](C)O)[C@@H](C)CC)C(=O)N[C@H](C(=O)N1CCC[C@H]1C(=O)N[C@@H](CC(=O)O)C(=O)N[C@H](C(=O)N[C@@H](CC(N)=O)C(=O)N1CCC[C@H]1C(=O)N[C@@H](C)C(=O)N[C@@H](Cc1c[nH]c2ccccc12)C(=O)N[C@@H](Cc1ccc(O)cc1)C(=O)N[C@@H](C)C(=O)N[C@@H](CO)C(=O)N[C@@H](CCCNC(=N)N)C(=O)NCC(=O)N[C@H](C(=O)N[C@@H](CCCNC(=N)N)C(=O)N1CCC[C@H]1C(=O)N[C@H](C(=O)NCC(=O)N[C@@H](CCCNC(=N)N)C(=O)N[C@@H](Cc1ccccc1)C(N)=O)C(C)C)[C@@H](C)CC)[C@@H](C)CC)[C@@H](C)O)C(=O)O` [palm^11-PrRP31] (H-SRTHRHSMEIK([γGlu-Palmitoyl])TPDINPAWYASRGIRPVGRF-NH2), the “potency among analogues of PrRP31” value with GPR10 is “most potent analogue of the natural peptide PrRP31”. Further, the blood glucose result in the series with blood glucose [2] and with blood glucose [3] was “decreased blood glucose” each time. In addition, the “significance P vs. saline, change in weight” value in the series with obese C57BL/6 mice (FIG. 4, IN 0.3 mg/kg, SC 5 mg/kg twice daily, ANOVA, Dunnett's) is recorded as below 0.001; in the series on obese WKY rats (FIG. 2, IN 0.3 mg/kg, IP 5 mg/kg, ANOVA, Dunnett's) it was below 0.001. The body weight change entry with obese C57BL/6 mice (IN 0.3 mg/kg (twice daily, 14 days)) is “reduced weight; also recorded: highly significant weight reduction”; with obese C57BL/6 mice (IN 0.3 mg/kg (twice daily, 14 days), listed as Palm^11-PrRP31), “highly significant weight reduction”; with obese C57BL/6 mice (SC 5 mg/kg twice daily, 14 days), “highly significant weight reduction”. The “glycated hemoglobin (HbAlc)” value in series [4] (IN 0.3 mg/kg once daily) is recorded as “significant decrease in blood glycated hemoglobin”; in series [4] (setting [6]) it was “significantly reduced glycated hemoglobin”; in series [4] (IP 5 mg/kg once daily) it was “significantly reduced glycated hemoglobin”. The “anti-obesity and anti-diabetic effects” value in series [5] was “anti-obesity and anti-diabetic effects”. In the series with obese WKY rats (IN 0.3 mg/kg vs. IP dose, rats), the “IN dose lower than IP dose for the same weight reduction” value is on record as 16 times lower. Moreover, the weight change entry is listed as “reduced weight; also recorded: highly significant weight reduction” in the series with obese WKY rats (IN 0.3 mg/kg once daily); “reduced the weight of rats after chronic administration to the same extent” in the series with obese WKY rats (setting [6]); “highly significant weight reduction” in the series with obese WKY rats (IP 5 mg/kg once daily, 5 mg/kg); “reduced the weight of rats after chronic administration to the same extent” with obese WKY rats (IP 5 mg/kg once daily, listed as Palm^11-PrRP31, 5 mg/kg). Besides, the “significance P vs. saline, cumulative food intake” value in the series with fasted C57BL/6 mice (FIG. 1, SC 5 mg/kg, IN 0.01 and 0.1 mg/kg, ANOVA, Dunnett's) was below 0.001. In addition, the “IN dose relative to SC dose for the same reduction in food intake, in words” value in the series with fasted C57BL/6 mice (IN 0.01 and 0.1 mg/kg vs. SC 5 mg/kg) is reported as “an order of magnitude lower dose”. Moreover, the “IN dose lower than SC dose to achieve the same effect on food intake” value in the series with fasted C57BL/6 mice (IN vs. SC, feeding test in mice) is 1-2 orders of magnitude. Besides, the food intake result with fasted C57BL/6 mice (IN 0.01 mg/kg, vs. saline / SC 5 mg/kg) was “same reduction in food intake; also recorded: significantly reduced food intake”; in the series with fasted C57BL/6 mice (IN 0.01 mg/kg, vs. saline / SC 5 mg/kg, listed as Palm^11-PrRP31) it was “reduced food intake in fasted mice very significantly and over a long period of time, to the same extent”; in the series on fasted C57BL/6 mice (IN 0.1 mg/kg, vs. saline / SC 5 mg/kg) it was “same reduction in food intake; also recorded: significantly reduced food intake”; in the series on fasted C57BL/6 mice (IN 0.1 mg/kg, vs. saline / SC 5 mg/kg, listed as Palm^11-PrRP31), “reduced food intake in fasted mice very significantly and over a long period of time, to the same extent”; in the series on fasted C57BL/6 mice (SC 5 mg/kg, vs. saline, 5 mg/kg), “highly significant (P<0.001) reduction in food intake; also recorded: significantly reduced food intake”; with fasted C57BL/6 mice (SC 5 mg/kg, vs. saline, listed as Palm^11-PrRP31, 5 mg/kg) it was “reduced food intake in fasted mice very significantly and over a long period of time”.
